Series [1] in a line: Resistance to protease degradation in rat plasma (RP-HPLC peak). As to conditions: 37° C., 24 hours compared to 0 hours, FIG. 6. The series is classed as in vitro ADME. The method, then: To confirm that the peptides of the embodiments are resistant to protease degradation compared to VIpep-3, VIpep-3 or representative peptides of the embodiments (Seq-1, Seq-6, Seq-9, or Seq-10) were mixed in rat plasma, and after a certain incubation time, the residual amount of the peptide was evaluated by the presence or absence of peaks on RP-HPLC. To 1 μL of each 10 mM peptide, 20 μL of rat plasma was added, and incubated at 37° C. for an arbitrary time (0 or 24 hours). Then, for VIpep-3, 80% acetonitrile, for the other peptides, 200 μL each of acetonitrile was added, mixed well, placed on ice for 10 minutes, and centrifuged at 15,000 rpm at 4° C. for 10 minutes to remove plasma proteins.

The target in series [2] is T1, VIPR2 (Homo sapiens, UniProt P41587).
T1 sequence (P41587 24-438): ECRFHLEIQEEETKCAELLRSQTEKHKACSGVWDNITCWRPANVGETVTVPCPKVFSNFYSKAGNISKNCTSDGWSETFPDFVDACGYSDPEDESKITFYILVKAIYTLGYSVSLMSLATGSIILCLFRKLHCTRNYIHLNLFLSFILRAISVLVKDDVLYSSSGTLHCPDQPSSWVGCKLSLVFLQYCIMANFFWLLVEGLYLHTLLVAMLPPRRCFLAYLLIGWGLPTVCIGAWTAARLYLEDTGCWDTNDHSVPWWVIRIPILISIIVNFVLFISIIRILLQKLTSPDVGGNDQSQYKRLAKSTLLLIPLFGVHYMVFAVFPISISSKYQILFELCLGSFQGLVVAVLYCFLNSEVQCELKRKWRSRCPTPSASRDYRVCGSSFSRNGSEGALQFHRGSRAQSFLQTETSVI
Kind of series: Change in intracellular calcium concentration in VIPR2-expressing cells (Fluo-8), peptide co-added with VIP. The note with it: VIP 150 nM, peptide 750 nM co-added, FIG. 5. More on the design: host or cells: purchased human VIPR2-expressing cell line. The series is classed as cell-based. The method, then:
One of the downstream signals of VIPR2 is known to be changes in intracellular calcium concentration. Human VIPR2-expressing cell line (Catalog No. HTS079RTA, manufactured by Eurofins) was treated with Scree Quest™ Fluo-8 No Wash Calcium Assay Kit (Catalog No. 36315, AAT Bioquest) to introduce Fluo-8, an indicator reagent to measure changes in intracellular calcium concentration by fluorescence. The natural ligand VIP (150 nM final concentration) and VIpep-3 (final concentration 750 nM) or representative examples of the peptides of the embodiments (Seq-1, Seq 5-9) (final concentration 750 nM) were co-added and changes in fluorescence intensity were observed over time using fluorescence microscopy. The difference between the fluorescence intensity before the addition of VIP and the strongest fluorescence intensity after the addition of VIP was taken as 100% and compared to the difference in fluorescence intensity when VIpep-3 or the inventive peptide was co-added.
A general note: Calcium flux is commonly read through the fluorescence of an indicator in the cells.

The target of series [3] is T2, VIPR2 (Mus musculus, UniProt P41588).
T2 construct: from tissue; host or cells: prefrontal cortex of ICR mice, 12 days old, male
T2 sequence (P41588 23-437): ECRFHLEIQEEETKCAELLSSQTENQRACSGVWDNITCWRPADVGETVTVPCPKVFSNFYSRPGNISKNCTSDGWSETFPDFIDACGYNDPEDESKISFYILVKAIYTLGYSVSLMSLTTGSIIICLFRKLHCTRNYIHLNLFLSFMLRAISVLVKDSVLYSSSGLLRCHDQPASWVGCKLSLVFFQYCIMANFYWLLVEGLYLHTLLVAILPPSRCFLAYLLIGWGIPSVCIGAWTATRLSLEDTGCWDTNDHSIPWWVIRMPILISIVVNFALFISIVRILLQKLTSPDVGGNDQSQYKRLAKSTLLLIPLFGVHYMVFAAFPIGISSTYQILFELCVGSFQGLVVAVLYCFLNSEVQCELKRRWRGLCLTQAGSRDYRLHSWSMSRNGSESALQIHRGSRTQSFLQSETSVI
Kind of series: VIPR2 antagonist activity in vivo: CREB phosphorylation in prefrontal cortex (Western blotting). As to conditions: ICR mice 12 days old, male, s.c., Ro25-1553 0.4 nmol/g with peptide 1 or 10 nmol/g, 1 hour, FIG. 8. The procedure: Ro25-1553 (Peptide Institute, Inc.) which is an analog of VIP and a selective agonist for VIPR2, was dissolved in PBS (0.4 nmol/g body weight), and then mixed at 9:1 with the representative example of the inventive peptide (Seq-10) dissolved in DMSO (1 nmol/g body weight or 10 nmol/g body weight) or DMSO (vehicle group) (at a final concentration of DMSO is 10%). These solutions were administered subcutaneously to ICR mice (12 days old, male). 1 hour later, brains were removed, prefrontal cortex was dissected, and the phosphorylation of intracellular cyclic AMP response sequence-binding protein (CREB) (one of the downstream signals of VIPR2) in the cells was evaluated by Western blotting. The antibodies used for Western blotting were anti-phosphorylated CREB antibody (#9198) and anti-CREB antibody (#9197) purchased from Cell Signaling Technology.

Series [4] concerns ICR mice. Kind of series: Novel object recognition test. The series is classed as in vivo. As to conditions: Ro25-1553 0.07 nmol/g mixed with peptide 1 nmol/g, FIG. 9B. The method, then:
We evaluated whether the peptide could improve the recognition function to novel objects, which is reduced by the activation of VIPR2. Ro25-1553 (Peptide Institute, Inc.) an analog of VIP and a selective agonist for VIPR2, was dissolved in PBS (0.07 nmol/g body weight), and then mixed at 99:1 with a representative example of the inventive peptide (Seq-10) dissolved in DMSO (1 nmol/g body weight) or DMSO (Vehicle group) (1% final concentration of DMSO). These solutions were administered subcutaneously once daily to male ICR mice on postnatal day 1 for 14 days, the mice were continuously bred and subjected to a novel object recognition test at 8 weeks of age. The novel object recognition test was conducted during the light period (8:00-20:00) according to Non-Patent Literature 12. First, test cages (30 cm×30 cm×35 cm) made of acrylic-modified polyvinyl chloride were placed in a soundproofed laboratory at an illumination level of 30 lux and covered only with wooden sterilized soft chips (Sankyo Lab Service Co.). […] The animals' behavior during the training and test trials was video-recorded, and the search time for each of the two objects was measured. The discrimination index was calculated as the ratio (%) of the search time difference between object c and object a to the total search time in the test trial.

Series [5] addresses T1, VIPR2. Briefly: Selective antagonist activity: intracellular calcium change (FLIPR Tetra) in VIPR1-, VIPR2- or PAC1-expressing cells. The series is classed as cell-based. More on the design: host or cells: VIPR2-expressing cells. The procedure: A representative example of any concentration of the inventive peptide (Seq-10) was added to cells expressing VIPR1-expressing cells, VIPR2-expressing cells, or PAC1-expressing cells all of which have been transfected with intracellular calcium concentration indicator and incubated for 30 minutes. Then, VIPR1 cells and VIPR 2 cells were treated with VIP (25 nM and 150 nM, respectively), and PAC1 cells were treated with PACAP (35 nM). The change in intracellular calcium concentration for 2 minutes immediately after the addition thereof was measured by FLIPR Tetra. The inhibition rate of the antagonist peptides was calculated, assuming that the change in intracellular calcium concentration when only the ligand for VIP or PACAP was added was defined as 0% inhibition, and the change in intracellular calcium concentration when both the antagonist peptide and the ligand were not added was defined as 100%.

Series [6] deals with T3, extracellular domain of human VIPR2 (Homo sapiens, UniProt P41587).
T3 sequence (P41587 24-124 limits assumed): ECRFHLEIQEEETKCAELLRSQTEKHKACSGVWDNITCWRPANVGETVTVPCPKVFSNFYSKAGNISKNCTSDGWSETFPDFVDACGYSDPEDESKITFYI
The note with it: recombinant protein, Non-Patent Literature 8; cited from earlier work.

Series [7] deals with T1, VIPR2. More on the design: host or cells: VIPR2-expressing cells. The note with it: cellular studies, Non-Patent Literature 8; cited from earlier work.

This is an account of results in patent publication US20230174582A1, “VIPR2 ANTAGONIST PEPTIDE” (ICHIMARU PHARCOS CO., LTD, priority 2020, published 2023).

Entries after “also recorded” stand apart in the source; their conditions may differ. Starred links: 1 amine or outer side, 2 acyl side, 3 side chain; linkers in the order of their positions; H or OH if unused. Positions of bridges follow the written chain, without caps; N, C: chain ends. Non-standard residues stand in square brackets, D forms with d. Residues, ends and D or L forms follow the SMILES beside them. TBMB = c1c(C[*:1])cc(C[*:3])cc1C[*:2]; mXylylene = c1cc(C[*:1])cc(C[*:2])c1; NMeY = CN[C@@H](Cc1ccc(O)cc1)C(=O)O; Dap = NC[C@H](N)C(=O)O; Mpa = O=C(O)CCS; Sar = CNCC(=O)O

Turning to `CC[C@H](C)[C@H](NC(=O)[C@H](CC(C)C)NC(=O)[C@@H]1CC(=O)NCCCC[C@@H]2NC(=O)[C@@H]3CCCN3C(=O)[C@H](CC(C)C)NC(=O)[C@H](Cc3ccc(O)cc3)N(C)C(=O)CCSCc3cccc(c3)CSC[C@H](NC(=O)[C@H](CC(C)C)NC(=O)[C@H](Cc3ccc(O)cc3)NC2=O)C(=O)N1)C(N)=O` [Seq-6, c(Mpa-NmeTyr-Leu-Pro-c[Lys-Tyr-Leu-Cys)-Asp]-Leu-Ile-NH2] ([Mpa][NMeY]LPKYLCDLI-NH2; linker 1-8 via mXylylene; lactam 5-9), the “resistance to protease degradation: peptide-derived RP-HPLC peak after incubation in rat plasma” value (“resistance to protease degradation” for short) in series [1] is listed as “resistance to protease degradation; also recorded: remained almost the same”. The “inhibition of the receptor-activating activity of VIP on VIPR2 (antagonist activity, intracellular calcium)” value in series [2] is recorded as “antagonist activity”.
Take `CC[C@H](C)[C@H](NC(=O)[C@H](CC(C)C)NC(=O)[C@@H]1CC(=O)NCCCC[C@@H]2NC(=O)[C@@H]3CCCN3C(=O)[C@H](CC(C)C)NC(=O)[C@H](Cc3ccc(O)cc3)NC(=O)[C@@H]3CCCN3C(=O)[C@@H]3CCCN3C(=O)[C@@H](NC(C)=O)CSSC[C@H](NC(=O)[C@H](CC(C)C)NC(=O)[C@H](Cc3ccc(O)cc3)NC2=O)C(=O)N1)C(N)=O` [Seq-10, Ac-c(Cys-Pro-Pro-Tyr-Leu-Pro-c[Lys-Tyr-Leu-Cys)-Asp]-Leu-Ile-NH2] (Ac-CPPYLPKYLCDLI-NH2; disulfide 1-10; lactam 7-11): the “resistance to protease degradation” value in series [1] is reported as “resistance to protease degradation; also recorded: remained almost the same”. Besides, in series [3], the “phosphorylation of CREB in prefrontal cortex” value was “clearly inhibited”. Further, the “recognition of novel objects versus Ro25-1553 alone (discrimination index)” value in series [4] (s.c. once daily 14 days from postnatal day 1, test at 8 weeks, p less than 0.001 (Student's t-test)) is “significant improvement”. Moreover, the “recognition function compared with normal mice” value in series [4] (s.c. once daily 14 days, test at 8 weeks) was “almost the same as that of normal mice”. In addition, the “antagonist activity against VIP-VIPR2 interaction versus VIP-VIPR1 or PACAP-PAC1 interactions (selectivity)” value in series [5] (peptide preincubated 30 minutes, VIP 25 nM (VIPR1), VIP 150 nM (VIPR2), PACAP 35 nM (PAC1), FIG. 7) is “significantly strong against VIP-VIPR2 interaction than those against VIP-VIPR1 or PACAP-PAC1 interactions”. Moreover, the “antagonist activity against VIPR2-expressing cells” value in series [5] (summary statement, Seq-10 tested with VIP 150 nM, FLIPR Tetra) was “antagonist activity”.
`CC(=O)N[C@H]1CSSC[C@@H](C(=O)N[C@H](C(=O)N[C@@H](CC(C)C)C(=O)N[C@@H](CC(C)C)C(=O)N[C@@H](CC(C)C)C(=O)N[C@@H](CCCNC(=N)N)C(=O)N[C@@H](CO)C(=O)O)[C@@H](C)O)NC(=O)[C@H](CC(C)C)NC(=O)[C@H](CCCNC(=N)N)NC(=O)[C@H](CCCNC(=N)N)NC(=O)[C@@H]2CCCN2C(=O)[C@H](CC(C)C)NC(=O)[C@H](Cc2ccc(O)cc2)NC(=O)[C@@H]2CCCN2C(=O)[C@@H]2CCCN2C1=O` [VIpep-3, Ac-c(Cys-Pro-Pro-Tyr-Leu-Pro-Arg-Arg-Leu-Cys)-Thr-Leu-Leu-Leu-Arg-Ser-OH] (Ac-CPPYLPRRLCTLLLRS-OH; disulfide 1-10): in series [1], the “resistance to protease degradation” value is “greatly reduced”. In addition, the “binding to VIPR2 extracellular region/domain” value in series [6] was “tightly binds”. In series [7], the “inhibition of VIP and PACAP signaling pathway through VIPR2” value is on record as “inhibits”. Besides, the “inhibition of the receptor-activating activity of VIP on VIPR2 (antagonist activity, intracellular calcium)” value in series [2] is listed as “inhibit the receptor-activating activity of VIP on VIPR2”.
Take “c(Mpa-NmeTyr-Leu-NmeGly-c(Cys)-Tyr-Leu-Cys)-Dap-Leu-Ile-NH2 ([Mpa][NMeY]L[Sar]CYLC[Dap]LI-NH2; linker (positions not given here) via TBMB; not fully specified (bridges)) [Seq-9, cyclization TBMB(1-5-8)]”: the “resistance to protease degradation” value in series [1] is on record as “resistance to protease degradation; also recorded: remained almost the same”. In addition, the “inhibition of the receptor-activating activity of VIP on VIPR2 (antagonist activity, intracellular calcium)” value in series [2] is reported as “antagonist activity”.
“c(Mpa-Pro-Pro-Tyr-Leu-Pro-c[Lys-Tyr-Leu-Cys)-Asp]-Leu-Ile-NH2 ([Mpa]PPYLPKYLCDLI-NH2; disulfide (positions not given here); lactam 7-11; not fully specified (bridges)) [Seq-1, cyclization S-S(1-10)/amide(7-11)]”: the “resistance to protease degradation” value in series [1] is listed as “resistance to protease degradation; also recorded: remained almost the same”. For the same molecule, in series [2], the “inhibition of the receptor-activating activity of VIP on VIPR2 (antagonist activity, intracellular calcium)” value is reported as “antagonist activity; also recorded: inhibit the receptor-activating activity of VIP on VIPR2”.
